Reference: paper PMC4884984, “Identification of approved and investigational drugs that inhibit hypoxia-inducible factor-1 signaling” (Oncotarget, 2016)
Where two headings read alike, the source gives them in different places.

Assays:
ME-180 cells = experiment: Cancer cell proliferation assay, ME-180; type: cell-based; conditions: Homo sapiens, ME-180, 72 h, Table S8, 3 days; for Emax: read-out: ME-180 3-Day Viability Efficacy; for IC50: read-out: ME-180 3-Day Viability IC50
Procedure: (§1) HCT116 and ME-180 cells (ATCC) were cultured according to manufacturer's instructions. […] Cell proliferation was quantified as relative luminescence unit (RLU) values using CellTiter-Glo viability assay reagent on a ViewLux plate reader (Perkin Elmer).

HCT116 cells = experiment: Cancer cell proliferation assay, HCT116; type: cell-based, human; conditions: Table S8, 3 days; for Emax / IC50: Homo sapiens, HCT-116, 72 h; for Emax: read-out: HCT116 3-Day Viability Efficacy; for IC50: read-out: HCT116 3-Day Viability IC50
Procedure: as §1

HRE–bla ME-180 cells = experiment: Viability (BLA): CellTiter-Glo counter screen in HRE–bla cells; type: cell-based, human; conditions: for IC50 / Emax: Table S7, confirmatory screen; for IC50: 1% O2, 18 h; for Emax: read-out: Viability (BLA) confirmatory Efficacy; for Viability (BLA) confirmatory IC50: Table S7, 1% O2, 18 h
Procedure: (§2) Cell culture of HRE–bla ME-180 cells (Cat. No. K1644, Life Technologies) and HRE–bla assay were conducted according to a reported protocol [6]. […] The fluorescence signals (460/25 nm and 530/20 nm) of CCF4 and luminescence signals of CellTiter-Glo were acquired on an Envision and a ViewLux plate readers (Perkin Elmer), respectively.

[1] = tested on: hypoxia response element-beta-lactamase (HRE–bla); experiment: HRE-bla reporter gene assay in ME-180 cells; type: cell-based, human; conditions: Table S7, confirmatory screen; for Emax: read-out: HRE–bla confirmatory Efficacy; for IC50: read-out: HRE–bla confirmatory IC50
Procedure: as §2

[2] = tested on: HIF-1α–NanoLuc HCT116 cells; experiment: Viability (Luc): CellTiter-Glo counter screen in HIF-1α–NanoLuc cells; type: cell-based, human; conditions: for Viability (Luc) confirmatory IC50: Table S7, 1% O2, 18 h; for IC50: 1% O2, 18 h
HIF-1α–NanoLuc = HIF-1α–NanoLuc reporter gene assay (qHTS primary and confirmatory screens); type: cell-based, human
[3] = Homo sapiens, Table S2, validation, read-out: Pathway inhibitors (validation) HIF-1α–NanoLuc Activity Efficacy
[4] = Homo sapiens, Table S2, validation, read-out: Pathway inhibitors (validation) HIF-1α–NanoLuc Activity IC50
[5] = Homo sapiens, Table S7, confirmatory screen, read-out: HIF-1α–NanoLuc confirmatory Efficacy
[6] = Homo sapiens, Table S2, primary screen, read-out: Pathway inhibitors (primary screen) HIF-1α–NanoLuc Activity Efficacy
[7] = Homo sapiens, Table S2, primary screen, read-out: Pathway inhibitors (primary screen) HIF-1α–NanoLuc Activity IC50
[8] = Homo sapiens, Table S7, primary screen, read-out: HIF-1α–NanoLuc primary Efficacy
[9] = Homo sapiens, 18 h, read-out: IC50 (primary screen, HIF-1α–NanoLuc assay)
[10] = Homo sapiens, read-out: Efficacy (primary screen, HIF-1α–NanoLuc assay)
[11] = Homo sapiens, read-out: HIF-1α–NanoLuc confirmatory Efficacy
[12] = Homo sapiens, read-out: HIF-1α–NanoLuc primary Efficacy
[13] = Homo sapiens, Table S7, confirmatory screen, read-out: HIF-1α–NanoLuc confirmatory IC50
[14] = Homo sapiens, Table S1, primary screen, read-out: Efficacy (primary screen, HIF-1α–NanoLuc assay)
[15] = Homo sapiens, HCT-116, Table S7, confirmatory screen
[16] = Homo sapiens, Table S7, primary screen, read-out: HIF-1α–NanoLuc primary IC50

SMILES	Emax (ME-180 cells) [%]	IC50 (ME-180 cells) [µM]	IC50 (HRE–bla ME-180 cells; Homo sapiens, ME-180) [µM]	Emax ([1]; Homo sapiens, ME-180) [%]	IC50 ([1]; Homo sapiens, ME-180) [µM]	Emax (HCT116 cells) [%]	IC50 (HCT116 cells) [µM]	Viability (Luc) confirmatory IC50 [2]	Emax (HIF-1α–NanoLuc; [5]) [%]	Emax (HIF-1α–NanoLuc; [8]) [%]	IC50 (HIF-1α–NanoLuc; [13]) [µM]	Viability (BLA) confirmatory IC50 (HRE–bla ME-180 cells)	IC50 (HIF-1α–NanoLuc; [16]) [µM]	also measured
COC[C@H]1OC(=O)c2coc3c2[C@@]1(C)C1=C(C3=O)[C@@H]2CCC(=O)[C@@]2(C)C[C@H]1OC(C)=O [Wortmannin]	80 ± 3	7 ± 4.33	11.4 ± 4.79	91 ± 8	0.57 ± 0.17	–	–	–	–	–	–	–	–	HCT116 3-Day Viability IC50 (HCT116 cells): Inactive; Emax (HRE–bla ME-180 cells; Homo sapiens, ME-180): 47 ± 11%
C[C@@H]1O[C@@H](O[C@H]2C[C@@H](O)[C@]3(CO)[C@H]4[C@H](O)C[C@]5(C)[C@@H](C6=CC(=O)OC6)CC[C@]5(O)[C@@H]4CC[C@]3(O)C2)[C@H](O)[C@H](O)[C@H]1O [Ouabain]	98 ± 4	0.13 ± 0.01	0.13	94 ± 4	0.08 ± 0.01	73 ± 13	0.63 ± 0.37	–	–	–	–	–	–	–
CCCS(=O)(=O)Nc1ccc(F)c(C(=O)c2c[nH]c3ncc(-c4ccc(Cl)cc4)cc23)c1F [Vemurafenib]	92 ± 5	14.3 ± 1.97	16 ± 8.13	75 ± 11	4.1 ± 0.7	63 ± 4	31.8 ± 9.41	Inactive	66 ± 6	–	–	–	–	Emax (HRE–bla ME-180 cells; Homo sapiens, ME-180): 27 ± 10%; Emax (HIF-1α–NanoLuc; [3]): 66 ± 6%; IC50 (HIF-1α–NanoLuc; [4]): 13.6 ± 6.38 µM
O=C(NOCC1CC1)c1ccc(F)c(F)c1Nc1ccc(I)cc1Cl [PD 184352]	100 ± 7	18 ± 1.17	5.93 ± 4.08	74 ± 5	5.98 ± 0.69	97 ± 4	13.2	Inactive	99 ± 2	64	–	–	–	Emax (HIF-1α–NanoLuc; [6]): 64%; IC50 (HIF-1α–NanoLuc; [7]): 0.84 µM; Emax (HIF-1α–NanoLuc; [3]): 99 ± 2%; IC50 (HIF-1α–NanoLuc; [4]): 13.7 ± 0.93 µM
C[C@H]1O[C@@H](O[C@H]2CC[C@@]3(C)[C@H](CC[C@@H]4[C@@H]3C[C@@H](O)[C@]3(C)[C@@H](C5=CC(=O)OC5)CC[C@]43O)C2)C[C@H](O)[C@@H]1O[C@H]1C[C@H](O)[C@H](O[C@H]2C[C@H](O)[C@H](O[C@@H]3O[C@H](CO)[C@@H](O)[C@H](O)[C@H]3O)[C@@H](C)O2)[C@@H](C)O1 [Deslanoside]	97 ± 3	0.31 ± 0.04	0.32 ± 0.09	102 ± 3	0.16 ± 0.03	63 ± 8	2.59 ± 2.87	Inactive	–	–	–	–	–	IC50 (HIF-1α–NanoLuc; [9]): 0.3 µM; Emax (HIF-1α–NanoLuc; [10]): 115%; Emax (HIF-1α–NanoLuc; [11]): 108 ± 9%; IC50 (HIF-1α–NanoLuc; Homo sapiens, read-out: HIF-1α–NanoLuc confirmatory IC50): 0.39 ± 0.03 µM; Emax (HIF-1α–NanoLuc; [12]): 115%
COc1cccc2c1C(=O)c1c(O)c3c(c(O)c1C2=O)C[C@@](O)(C(C)=O)C[C@@H]3O[C@H]1C[C@H](N)[C@H](O)[C@H](C)O1 [Daunorubicin]	101 ± 4	0.17 ± 0.08	3.28 ± 1.23	80 ± 5	1 ± 0.44	79 ± 28	2.43 ± 1.4	Inactive	–	–	–	–	–	IC50 (HIF-1α–NanoLuc; [9]): 0.75 µM; Emax (HIF-1α–NanoLuc; [10]): 51%; Emax (HIF-1α–NanoLuc; [11]): 98 ± 8%; Emax (HIF-1α–NanoLuc; [12]): 51%; Emax (HIF-1α–NanoLuc; Homo sapiens, read-out: Pathway inhibitors (primary screen) HIF-1α–NanoLuc Activity Efficacy): 50%; Emax (HIF-1α–NanoLuc; Homo sapiens, read-out: Pathway inhibitors (validation) HIF-1α–NanoLuc Activity Efficacy): 98 ± 8%; IC50 (HIF-1α–NanoLuc; Homo sapiens, read-out: Pathway inhibitors (validation) HIF-1α–NanoLuc Activity IC50): 1.96 ± 0.35 µM
CO[C@H]1C[C@@H]2CC[C@@H](C)[C@@](O)(O2)C(=O)C(=O)N2CCCC[C@H]2C(=O)O[C@H]([C@H](C)C[C@@H]2CC[C@@H](OC(=O)C(C)(CO)CO)[C@H](OC)C2)CC(=O)[C@H](C)/C=C(\C)[C@@H](O)[C@@H](OC)C(=O)[C@H](C)C[C@H](C)/C=C/C=C/C=C/1C [Temsirolimus]	–	–	27.7 ± 1.87	86 ± 7	15.9 ± 6.91	–	–	Inactive	92 ± 8	–	34.5 ± 2.34	–	–	Emax (HRE–bla ME-180 cells; Homo sapiens, ME-180): 116 ± 11%
COc1cc2ncnc(Nc3ccc(F)c(Cl)c3)c2cc1OCCCN1CCOCC1 [Gefitinib]	–	–	–	45 ± 14	–	–	–	Inactive	31 ± 3	86	–	Inactive	–	Emax (HIF-1α–NanoLuc; [14]): 86%
N#C/C(=C\c1ccc(-c2cc(Cl)ccc2Cl)o1)C(=O)Nc1cccc2ncccc12 [AGK2]	–	–	–	–	–	–	–	–	–	–	–	–	–	IC50 (HRE–bla ME-180 cells): 10.1 ± 2.97 µM; IC50 ([2]; Table S7, confirmatory screen): 21.2 ± 3.96 µM; HRE–bla confirmatory Efficacy [1]: 63 ± 14%; IC50 [1]: 9.47 ± 3.45 µM; Pathway inhibitors (validation) HIF-1α–NanoLuc Activity Efficacy (HIF-1α–NanoLuc; Table S2, validation): 107± 9%; IC50 (HIF-1α–NanoLuc; Table S2, validation, read-out: Pathway inhibitors (validation) HIF-1α–NanoLuc Activity IC50): 19.5 ± 2.49 µM; HIF-1α–NanoLuc confirmatory Efficacy (HIF-1α–NanoLuc; Table S7, confirmatory screen): 107 ± 9%
C#Cc1cccc(Nc2ncnc3cc(OCCOC)c(OCCOC)cc23)c1 [Erlotinib]	–	–	–	59 ± 15	7.95 ± 3.47	–	–	Inactive	35 ± 6	33	–	Inactive	–	IC50 (HIF-1α–NanoLuc; Homo sapiens, Table S1, primary screen, hypoxia 1% O2, 18 h, read-out: IC50 (primary screen, HIF-1α–NanoLuc assay)): 2.66 µM; Emax (HIF-1α–NanoLuc; [14]): 33%; Emax (HIF-1α–NanoLuc; [6]): 33%; Emax (HIF-1α–NanoLuc; [3]): 35 ± 6%; IC50 (HIF-1α–NanoLuc; [4]): 6.64 ± 2.42 µM
Nc1nc2nc[nH]c2c(=S)[nH]1 [6-Thioguanine]	–	–	–	88 ± 1	7.83 ± 1	–	–	–	81 ± 7	81	3.26 ± 0.81	Inactive	2.11	IC50 [2, 15]: 2.3 ± 0.87 µM; Emax ([2]; Homo sapiens, HCT-116, Table S7, confirmatory screen, read-out: Viability (Luc) confirmatory Efficacy): 57 ± 2%
Cc1nc(Nc2ncc(C(=O)Nc3c(C)cccc3Cl)s2)cc(N2CCN(CCO)CC2)n1 [Dasatinib]	–	–	–	52 ± 11	0.03 ± 0.02	–	–	Inactive	46 ± 3	56	–	Inactive	21.1	Emax (HIF-1α–NanoLuc; [6]): 82%; IC50 (HIF-1α–NanoLuc; [7]): 0.94 µM; Emax (HIF-1α–NanoLuc; [3]): 46 ± 3%; IC50 (HIF-1α–NanoLuc; [4]): 23.6 ± 8.59 µM
CCOc1ccc(Cc2nccc3cc(OCC)c(OCC)cc23)cc1OCC [Ethaverine]	–	–	–	–	–	–	–	Inactive	96 ± 2	67	9.39 ± 1.08	Inactive	6.68	HRE–bla confirmatory IC50 [1]: Inactive
Cn1cnc([N+](=O)[O-])c1Sc1ncnc2nc[nH]c12 [Azathioprine]	–	–	–	–	–	–	–	–	50 ± 11	67	8.07 ± 1.82	Inactive	3.42	IC50 [2, 15]: 2.11 ± 0.53 µM; HRE–bla confirmatory IC50 [1]: Inactive
CC(=O)Oc1ccc(C2(c3ccc(OC(C)=O)cc3)C(=O)Nc3ccccc32)cc1 [Oxyphenisatin acetate]	–	–	0.2 ± 0.01	92 ± 3	0.19 ± 0.01	–	–	Inactive	55 ± 9	84	2.47 ± 0.79	–	1.33	–
